Data as given in patent US20190194148A1, “TETRAZOLE-CONTAINING 1,2-CYCLOPROPANE-CARBOXAMIDES” (Bayer Pharma Aktiengesellschaft, priority 2017, published 2019).
Read-outs that look alike come from different tables or passages of the source.

Target: T1, human B1 receptor (Homo sapiens, UniProt P46663)
T1 construct: host or cells: CHO-K1
T1 sequence (P46663 1-353): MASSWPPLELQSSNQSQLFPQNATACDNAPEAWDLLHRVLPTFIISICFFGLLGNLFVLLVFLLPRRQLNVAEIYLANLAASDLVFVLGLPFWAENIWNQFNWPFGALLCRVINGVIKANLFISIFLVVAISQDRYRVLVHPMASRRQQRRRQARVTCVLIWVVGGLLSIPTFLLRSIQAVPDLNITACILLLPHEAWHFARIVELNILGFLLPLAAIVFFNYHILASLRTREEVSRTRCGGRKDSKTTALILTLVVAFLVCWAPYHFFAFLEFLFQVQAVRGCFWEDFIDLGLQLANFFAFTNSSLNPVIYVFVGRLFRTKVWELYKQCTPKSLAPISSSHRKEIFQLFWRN
Assay: Calcium flux assay (FLIPR) with recombinant CHO-K1 cells expressing human B1 receptor
Format: cell-based
Description: The potency to inhibit the Bradykinin B1 receptors was determined for the example compounds of this invention in a cell-based fluorescent calcium-mobilisation assay. The assay measures the ability of example compounds to inhibit Bradykinin B1 receptor agonist-induced increase of intracellular free Ca^2+ in the cell line expressing B1 receptor. Specifically, calcium indicator-loaded cells are pre-incubated in the absence or presence of different concentrations of example compounds followed by the stimulation with a selective B1 receptor agonist peptide. The change of the intracellular Ca^2+ concentration is monitored with a fluorescent plate reader FLIPR (Molecular Devices).
Calcium Flux Assays (FLIPR) with Cells Expressing Bradykinin B1 Receptor Calcium Flux Assay (FLIPR) with Recombinant Cells for Bradykinin B1 Receptor Antagonist, Either in the Presence (hB1 IC50) or Absence (hB1 free IC50) of 0.1% Bovine Serum Albumin (BSA) in Assay Buffer
CHO-K1 cell line expressing human B1 receptor was purchased from Euroscreen (Gosselies, Belgium, with reference name hB1-D1). The cells were grown in Nutrient Mixture Ham's F12 (Sigma) containing 10% Foetal bovine serum (Sigma) and 400 μg/mL G418 (Sigma), 5 μg/mL puromycin (Sigma).
For the calcium flux assay, 80% confluent cells were detached from the culture vessels with Versene (Gibco), and seeded into 384-well plates (Cell binding Surface; Corning, N.Y.; #3683) at a density of 15,000 cells per well. Cells were seeded in a volume of 50 μL in medium without antibiotics and incubated overnight in a humidified atmosphere with 5% CO2 at 37° C. […] The calcium indicator loaded cells were incubated at 37° C. for 2 hrs. Extracellular dye was then removed and each well was filled with 45 μL of assay buffer. Cell plates were kept in dark until used. Example compounds were assayed at 8 concentrations in triplicate. Serial 10-fold dilutions in 100% DMSO were made at a 100-times higher concentration than the final concentration, and then diluted 1:10 in assay buffer. 5 μL of each diluted compound was added to the well of cell plates (yielding final concentration with 1% DMSO), and incubated for 30 min at 28° C. before the addition of B1 receptor agonist on the FLIPR instrument.
Agonist plates contained the agonist Lys-(Des-Arg)-Bradykinin (Bachem, Brackley) at 3.5×EC90 in assay buffer with 1% DMSO. The addition of agonist 20 μl per well to the assay plate was carried out on the FLIPR instrument while continuously monitoring Ca^2+-dependent fluorescence at 538 nm. A peptide antagonist Lys-(Des-Arg-Leu)-Bradykinin (Bachem, Brackley) at 20 μM was used to determine the full inhibition as control.
Peak fluorescence was used to determine the response to agonist obtained at each concentration of example compound by the following equation:
% Response=100*(RFU(example compound)−RFU(control)/(RFU(DMSO)−RFU(control)
Control=full inhibition by the peptide antagonist Lys-(Des-Arg-Leu)-Bradykinin at 20 μM
The response values were plotted against the logarithm of the compound concentrations. The compounds were tested in triplicates per plate and mean values were plotted in Excel XLfit to determine IC50 values, percentage of maximal inhibition and the Hill slopes.

[1] = presence of 0.1% BSA in assay buffer, read-out: hB1 IC50
[2] = absence of 0.1% BSA in assay buffer, read-out: hB1 free IC50

SMILES | IC50 [1] | IC50 [2]
CC1(C(=O)Nc2ccc(-c3ccc(C(F)(F)F)nc3)c(-c3nnn[nH]3)c2)CC1c1ccccc1 (racemic) [Example 29, 1-Methyl-2-phenyl-N-{3-(1H-tetrazol-5-yl)-4-[6-(trifluoromethyl)pyridin-3-yl]phenyl}cyclopro-panecarboxamide] |  | 526 nM
CCOc1ccc(-c2cc(O)c(NC(=O)C3CC3c3ccc(Cl)cc3)cc2-c2nnn[nH]2)cn1 (single isomer, unassigned) [Example 50, 2-(4-chlorophenyl)-N-[4-(6-ethoxypyridin-3-yl)-2-hydroxy-5-(1H-tetrazol-5-yl)phenyl]cyclopropane-carboxamide] | 24 nM | 
COc1ccc(-c2c(F)cc(NC(=O)C3CC3C3CCCCC3)cc2-c2nnn[nH]2)cc1OC (racemic) [Example 60, 2-Cyclohexyl-N-[2-fluoro-3′,4′-dimethoxy-6-(1H-tetrazol-5-yl)biphenyl-4-yl]cyclopro-panecarboxamide] | 177 nM | 
O=C(Nc1ccc(-c2ccc(OC(F)(F)F)cc2)c(-c2nnn[nH]2)c1)C1CC1c1ccc(Cl)cc1 (racemic) [Example 41, 2-(4-chlorophenyl)-N-[2-(1H-tetrazol-5-yl)-4′-(trifluoro-methoxy)biphenyl-4-yl]cyclopropanecarbox-amide] | 33 nM | 
O=C(Nc1cc(F)c(-c2ccc(C(F)(F)F)nc2)c(-c2nnn[nH]2)c1)C1CC1c1ccc(Cl)cc1 (racemic) [Example 62, 2-(4-chlorophenyl)-N-{3-fluoro-5-(1H-tetrazol-5-yl)-4-[6-(trifluoromethyl)pyridin-3-yl]phenyl}cyclopro-panecarboxamide] |  | 947 nM
CCOc1ccc(-c2cc(O)c(NC(=O)C3CC3c3ccc(Cl)cc3)cc2-c2nnn[nH]2)cn1 (single isomer, unassigned) [Example 49, 2-(4-chlorophenyl)-N-[4-(6-ethoxypyridin-3-yl)-2-hydroxy-5-(1H-tetrazol-5-yl)phenyl]cyclopropane-carboxamide] | 1580 nM | 
COc1cncc(-c2ccc(NC(=O)C3CC3C3CCCCC3)cc2-c2nnn[nH]2)c1 (racemic) [Example 24, 2-Cyclohexyl-N-[4-(5-methoxypyridin-3-yl)-3-(1H-tetrazol-5-yl)phenyl]cyclopro-panecarboxamide] | 310 nM | 
CCOc1cncc(-c2ccc(NC(=O)C3CC3c3ccc(Cl)cc3)cc2-c2nnn[nH]2)c1 (racemic) [Example 22, 2-(4-Chlorophenyl)-N-[4-(5-ethoxypyridin-3-yl)-3-(1H-tetrazol-5-yl)phenyl]cyclopro-panecarboxamide] | 603 nM | 
COc1cncc(-c2cc(C)c(NC(=O)C3CC3C3CCCCC3)cc2-c2nnn[nH]2)c1 (racemic) [Example 69, 2-Cyclohexyl-N-[4-(5-methoxypyridin-3-yl)-2-methyl-5-(1H-tetrazol-5-yl)phenyl]cyclopropane-carboxamide] | 447 nM | 
O=C(Nc1ccc(-c2ccc(C(F)(F)F)nc2)c(-c2nnn[nH]2)c1)C1CC1c1ccccc1 (racemic) [Example 28, 2-Phenyl-N-{3-(1H-tetrazol-5-yl)-4-[6-(trifluoromethyl)pyridin-3-yl]phenyl}cyclopro-panecarboxamide] |  | 509 nM
COc1ccc(-c2cc(F)c(NC(=O)C3CC3c3ccc(Cl)cc3)cc2-c2nnn[nH]2)cc1 (racemic) [Example 58, 2-(4-Chlorophenyl)-N-[5-fluoro-4′-methoxy-2-(1H-tetrazol-5-yl)biphenyl-4-yl]cyclopropanecarbox-amide] | 134 nM | 
COCc1ccc(-c2ccc(NC(=O)C3CC3C3CCCCC3)cc2-c2nnn[nH]2)cc1 (racemic) [Example 82, 2-cyclohexyl-N-[4′-(methoxymethyl)-2-(1H-tetrazol-5-yl)biphenyl-4-yl]cyclopropanecarbox-amide] | 2550 nM | 
CCOc1ncc(-c2ccc(NC(=O)C3CC3c3ccc(Cl)cc3)cc2-c2nnn[nH]2)cn1 (racemic) [Example 27, 2-(4-Chlorophenyl)-N-[4-(2-ethoxypyrimidin-5-yl)-3-(1H-tetrazol-5-yl)phenyl]cyclopropane-carboxamide] |  | 13 nM

Results, then the molecule that gave them:

IC50 [1] | IC50 [2] | SMILES
38 nM |  | CCOc1ccc(-c2cc(C)c(NC(=O)C3CC3c3cccc(C)c3)cc2-c2nnn[nH]2)cc1OC (racemic) [Example 72, N-[4′-Ethoxy-3′-methoxy-5-methyl-2-(1H-tetrazol-5-yl)biphenyl-4-yl]-2-(3-methylphenyl)cyclopro-panecarboxamide]
33 nM |  | COc1ccc(-c2ccc(NC(=O)C3CC3c3ccc(C)cc3)cc2-c2nnn[nH]2)cc1OC (racemic) [Example 10, N-[3′,4′-dimethoxy-2-(1H-tetrazol-5-yl)biphenyl-4-yl]-2-(4-methylphenyl)cyclopro-panecarboxamide]
16 nM |  | CCc1ccccc1C1CC1C(=O)Nc1ccc(-c2ccc(OC)c(OC)c2)c(-c2nnn[nH]2)c1 (racemic) [Example 5, N-[3′,4′-dimethoxy-2-(1H-tetrazol-5-yl)biphenyl-4-yl]-2-(2-ethylphenyl)cyclopro-panecarboxamide]
27 nM | 12 nM | COc1ccc(-c2ccc(NC(=O)C3CC3c3ccccc3C)cc2-c2nnn[nH]2)cc1OC (racemic) [Example 4, N-[3′,4′-dimethoxy-2-(1H-tetrazol-5-yl)biphenyl-4-yl]-2-(2-methylphenyl)cyclopro-panecarboxamide]
226 nM |  | CCOc1ccc(-c2cc(C)c(NC(=O)C3CC3C3CCCCC3)cc2-c2nnn[nH]2)cc1OC (racemic) [Example 73, 2-Cyclohexyl-N-[4′-ethoxy-3′-methoxy-5-methyl-2-(1H-tetrazol-5-yl)biphenyl-4-yl]cyclopro-panecarboxamide]
26 nM |  | COc1ccc(-c2cc(F)c(NC(=O)C3CC3c3ccc(Cl)cc3)cc2-c2nnn[nH]2)cc1OC (racemic) [Example 54, 2-(4-Chlorophenyl)-N-[5-fluoro-3′,4′-dimethoxy-2-(1H-tetrazol-5-yl)biphenyl-4-yl]cyclopro-panecarboxamide]
83 nM |  | COc1ccc(-c2c(F)cc(NC(=O)C3CC3c3cccc(C)c3)cc2-c2nnn[nH]2)cc1OC (racemic) [Example 59, N-[2-Fluoro-3′,4′-dimethoxy-6-(1H-tetrazol-5-yl)biphenyl-4-yl]-2-(3-methylphenyl)cyclopro-panecarboxamide]
86 nM | 157 nM | Cc1cccc(C2CC2C(=O)Nc2cc(-c3nnn[nH]3)c(-c3ccc(C(F)(F)F)nc3)cc2C)c1 (racemic) [Example 70, 2-(3-Methylphenyl)-N-{2-methyl-5-(1H-tetrazol-5-yl)-4-[6-(trifluoromethyl)pyridin-3-yl]phenyl}cyclopro-panecarboxamide]
19 nM | 6 nM | COc1ccc(-c2ccc(NC(=O)C3CC3c3cccc(C)c3)cc2-c2nnn[nH]2)cc1OC (racemic) [Example 7, N-[3′,4′-dimethoxy-2-(1H-tetrazol-5-yl)biphenyl-4-yl]-2-(3-methylphenyl)cyclopro-panecarboxamide]
303 nM |  | CCOc1cncc(-c2ccc(NC(=O)C3CC3c3cccc(C)c3)cc2-c2nnn[nH]2)c1 (racemic) [Example 23, N-[4-(5-Ethoxypyridin-3-yl)-3-(1H-tetrazol-5-yl)phenyl]-2-(3-methylphenyl)cyclopro-panecarboxamide]
